# Results reported in patent US7579488B2 (Eli Lilly and Company, priority 2003, dated 2009).
# “And” between values parts separate entries of the source, which are not always exact repeats. Equal entries are not always repeated. Where two headings read alike, the source gives them in different places.
# Experiments:
# rat osteocalcin promoter = test: OCN (osteocalcin) promoter assay; format: cell-based; conditions: RG-15 (ROS 17/2.8) cells
# Experimental: 3. The OCN (Osteocalcin) Promoter Assay
# The OCN Promoter Assay is an indicator and marker for osteoporosis. […] Preferred assay results are less than 50 nM.
# (3) Materials and Method for The OCN Promoter Assay:
# The activation of osteocalcin by VDR ligands was evaluated in a rat osteoblast-like cell line RG-15 (ROS 17/2.8) stably expressing rat osteocalcin promoter fused with luciferase reporter gene. […] Confluent RG-15 cells maintained in DMEM/F-12 medium (3:1) containing 5% FBS, 300 μg/ml G418 and at 37° C. under 5% CO2/95% air atmosphere were trypsinized (0.25% trypsin) and plated into white opaque 96-well cell culture plates (25000 cells/well). After 24 hr, cells (in DMEM/F-12 medium+2% FBS) were treated with various concentrations of compounds, dissolved in DMSO. The final DMSO concentration remained at 0.01% (v/v). After 48 hr treatment, the medium was removed, cells were lysed with 50 μl of lysis buffer (From Luciferase reporter assay system, Roche Diagnostics, Indianapolis, Ind.) and assayed for luciferase activity using the Luciferase Reporter Gene Assay kit from Boehringer Mannheim as per manufacturer's specifications.
# KERtr cells = test: Keratinocyte proliferation assay; format: cell-based; conditions: Homo sapiens, read-out: Kera. Prolif. IC50
# Experimental: 5. The Keratinocyte Proliferation Assay
# This Assay is indicative for the treatment of psoriasis.
# (5) The Keratinocyte Proliferation Assay:
# KERtr cells (Human skin keratinocyte transformed with a retrovirus vector, obtained from ATCC) were plated in 96-well flat-bottomed plates (3000 cells/well) in 100 μl keratinocyte serum free medium supplemented with bovine pituitary extract in the absence of EGF (Life Technologies, Rockville, Md.) and incubated at 37° C. for two days. The cells were treated with various concentrations of VDR ligands (ten-fold serial dilution from 10,000 nM to 0.1 nM in triplicate), dissolved in 100 μl keratinocyte serum free medium supplemented with bovine pituitary extract in the absence of EGF and incubated at 37° C. for 72 hr. […] Potency values (IC50) values were determined as the concentration (nM) of compound that elicited a half-maximal response.
# female DBF mice = test: Mouse hypercalcemia assay; conditions: oral gavage for 6 days
# Description: The Mouse Hypercalcemia Assay
# The Mouse Hypercalcemia Assay is a six day hypercalcemia test for toxicity and selectivity.
# (4) Materials and Method for the Mouse Hypercalcemia Assay:
# Weanling, virus-antibody-free, five to six weeks old female DBF mice (Harlan, Indianapolis, Ind.) are used for all the studies. Animals are allowed to acclimate to local vivarium conditions for 2 days. […] The animals then are divided into groups with 4-5 mice per group. Different doses of test compounds prepared in 10% Ethanol and 90% sesame oil are administered to mice orally via gavage for 6 days. 1α-25(OH)2D3 0.5 μg/kg/d was also given to one group of mice as the positive control. […] Raw data of group differences is assessed by analysis of variance (ANOVA) using Fisher's protected least significant difference (PLSD) where the significance level was P<0.05.
# VDR = target: T1, VDR (Homo sapiens, UniProt P11473); test: VDR CTF (Caco-2 cell co-transfection) assay; format: cell-based; conditions: Caco-2 cells, pGal4-VDR-LBD co-transfection, luciferase; several values separated by /
# T1 construct: the receptor expression vector pGal4-VDR-LBD (10 ng); expressed in transfected cells; host or cells: Caco-2 cells
# T1 sequence (P11473 127-423 limits assumed): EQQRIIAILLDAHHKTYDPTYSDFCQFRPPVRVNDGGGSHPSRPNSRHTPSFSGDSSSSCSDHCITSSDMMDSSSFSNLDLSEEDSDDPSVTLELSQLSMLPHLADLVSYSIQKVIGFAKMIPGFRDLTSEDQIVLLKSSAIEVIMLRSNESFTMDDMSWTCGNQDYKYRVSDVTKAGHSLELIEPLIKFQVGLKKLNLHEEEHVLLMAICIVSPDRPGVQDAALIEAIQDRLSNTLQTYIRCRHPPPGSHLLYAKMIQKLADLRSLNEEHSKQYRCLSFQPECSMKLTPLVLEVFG
# Experimental: 2. The Caco-2 Cell Co-Transfection Assay:
# The Caco-2 cell assay is an indicator for the undesirable condition of hypercalcemia. This co-transfection assay is a surrogate assay for in vivo calcemic activity of VDR ligands. […] Preferred assay results are greater than 1000 nM.
# (2) Materials and Method for the Caco-2 Cell Assay:
# Caco-2 cells, grown in phenol red free, DMEM (Invitrogen, Carlsbad, Calif.) containing 10% charcoal-stripped FCS (Hyclone, Logan, Utah), were transfected with Fugene 6 reagent (Roche Diagnostics, Indianapolis, Ind.). Cells (5000/well) were plated 18 h before transfection in a 96 well plate. The Cells were transfected with Gal4-responsive reporter pFRLuc (150 ng, Stratagene, La Jolla Calif.) and the receptor expression vector pGal4-VDR-LBD (10 ng), along with Fugene 6 reagent (0.2 μl/well). The DNA-Fugene complex was formed by incubating the mixture for 30 min at room temperature. The cells were transfected in triplicate for 5 h, and treated with various concentrations of VDR ligands (form 0.01 nM to 10,000 nM concentration range) 18 h post-transfection. The luciferase activity was quantified using Steady-Glo reagent kit (Promega, Madison, Wis.) as per manufacturer's specifications.
# RXR-VDR heterodimer = target: T2, RXR-VDR heterodimer (Homo sapiens, UniProt P11473); test: RXR-VDR heterodimerization assay (SaOS-2 cells); format: cell-based; conditions: Gal4-RXR-DEF/VP16-VDR-LBD luciferase reporter, several values in a cell separated by /
# T2 construct: Add the Gal4-RXR-DEF and VP16-VDR-LBD; expressed in transfected cells; host or cells: SaOS-2 cells
# T2 sequence (P11473 127-423 limits assumed): T1 sequence (P11473 127-423 limits assumed)
# T2 sequence (P19793 201-462 partner limits assumed): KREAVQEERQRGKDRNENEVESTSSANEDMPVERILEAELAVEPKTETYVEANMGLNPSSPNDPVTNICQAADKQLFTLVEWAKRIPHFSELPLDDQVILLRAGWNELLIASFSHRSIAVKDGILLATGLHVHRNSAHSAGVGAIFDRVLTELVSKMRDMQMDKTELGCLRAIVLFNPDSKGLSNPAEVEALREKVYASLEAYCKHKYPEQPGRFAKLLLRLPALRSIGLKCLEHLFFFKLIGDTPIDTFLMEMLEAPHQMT
# Experimental: 1. The RXR-VDR Heterodimer Assay:
# This assay provides the VDR activity of a test compound.
# (1) Materials and Method for RXR-VDR Heterodimerization Assay:
# Luciferase Assay Reagent: • Use Steady-Glo Luciferase Reagent from Promega (Cat #E2550) Consists of: a. E2533 Assay Substrate, lyopholized product and b. E2543 Assay Buffer. • Thaw at room temperature • Store Cell Harvesting Aspirate media from culture flask, rinse cells with HBSS and aspirate. Add trypsin and incubate. When cells appear detached, resuspend cells in growth media. Transfer into a new flask with fresh growth media for passaging the cells. Plate well plates and two extra plates A. Cell Count Mix the cell suspension using pipette Use Hematocytometer to count the cells Load cell suspension onto the hemocytometer chamber Count cells. […] In sterile flask add cell suspension to plating media. Mix. Add cells/well. Place the cells in the incubator. Cells should be about 75% confluent prior to transfection. DAY 2: Transfection Step 1: DNA and Media Add plain DMEM media to tubes for mixing the DNA Add the Reporter gene pFR-LUC Add the Gal4-RXR-DEF and VP16-VDR-LBD Step 2: FuGENE and Media Prepare plain DMEM media in a ubes for mixing FuGENE Add FuGENE 6 Transfection Reagent Incubate Step 3: FuGENE, DNA and Media Complex Add FuGENE Media complex from step 2 to DNA Media complex from step 1 Incubate Step 4: FuGENE, DNA and Media Complex to-well plate Add FuGENE-DNA-Media complex from step 3 to each plate Incubate. […] Day 4: Luciferase Assay Read the plates after drug treatment Remove part of media from all the wells and leave remainder Add Steady-Glo Luciferase Reagent mixture/wells Incubate Count each well using a Luminescence counter, Top Count NXT by Packard
# Set a delay between plates to reduce the background.
# [1] = Rattus norvegicus, comparison compounds
# [2] = Rattus norvegicus, 48 h, 48 hr treatment, luciferase, several values separated by /
# [3] = 72 h, BrdU incorporation, several values separated by /
# [4] = serum ionized calcium 6 hours after last dosing
# [5] = 48 hr treatment, luciferase, several values separated by /
SMILES,EC50 (VDR),EC50 (rat osteocalcin promoter; [2]) [nM],IC50 (KERtr cells; [3]) [nM],EC50 (RXR-VDR heterodimer),also measured
"CCC(CC)(c1ccc(OCC(=O)C(C)(C)C)c(C)c1)c1ccc(OCC(=O)C(C)(C)C)c(C)c1 [DD, reference compound]",,,,,EC50 (rat osteocalcin promoter; [1]): 31.1 nM; IC50 (KERtr cells; comparison compounds): 1060 nM; Mouse Hypercal (female DBF mice; comparison compounds): 1000 µg/kg/day
"CCC(CC)(c1ccc(OCC(=O)C(C)(C)C)c(C)c1)c1ccc(OC[C@H](O)C(C)(C)C)c(C)c1 [EE, reference compound]",,,,,EC50 (rat osteocalcin promoter; [1]): 341 nM; Mouse Hypercal (female DBF mice; comparison compounds): 1000 µg/kg/day
"CCC(CC)(c1ccc(OCC(=O)C(C)(C)C)c(C)c1)c1cc2ccc(C(=O)O)cc2o1 [Ex 18, 2-{1-[4-(3,3-dimethyl-2-oxo-butoxy)-3-methyl-phenyl]-1-ethyl-propyl}-benzofuran-6-carboxylic acid]",472 nM,2,25,,Mouse Hypercal (female DBF mice; [4]): >300 µg/kg/day
"CCC(CC)(c1ccc(OCC(=O)C(C)(C)C)c(C)c1)c1cc2ccc(C(=O)NCC(=O)O)cc2o1 [Ex 20, [(2-{1-[4-(3,3-Dimethyl-2-oxo-butoxy)-3-methyl-phenyl]-1-ethyl-propyl}-benzofuran-6-carbonyl)-amino]-acetic acid]",773 nM,,1000,264 nM and 68 nM,
"CCC(CC)(c1ccc(OCC(=O)C(C)(C)C)c(C)c1)c1cc(C)c2oc(C(=O)NCC(=O)O)cc2c1 [Ex 28, [(5-{1-[4-(3,3-dimethyl-2-oxo-butoxy)-3-methyl-phenyl]-1-ethyl-propyl}-7-methyl-benzofuran-2-carbonyl)-amino]-acetic acid]",,4,11,,Mouse Hypercal (female DBF mice; [4]): >1000 µg/kg/day
"CCC(CC)(c1ccc(OCC(O)C(C)(C)C)c(C)c1)c1ccc2oc(C(=O)NCC(=O)O)cc2c1 (centres unmarked) [Ex 33, [(5-{1-ethyl-1-[4-(2-hydroxy-3,3-dimethyl-butoxy)-3-methyl-phenyl]-propyl}-benzofuran-2-carbonyl)-amino]-acetic acid]",178 nM,0.4,,9 nM,
"CCC(CC)(c1ccc(OCC(=O)C(C)(C)C)c(C)c1)c1ccc2oc(C(=O)O)c(C)c2c1 [Ex 34, 5-{1-[4-(3,3-Dimethyl-2-oxo-butoxy)-3-methyl-phenyl]-1-ethyl-propyl}-3-methyl-benzofuran-2-carboxylic acid]",896 nM,13,,,EC50 (rat osteocalcin promoter; [5]): 21 nM; Mouse Hypercal (female DBF mice; [4]): >3000 µg/kg/day
"CCC(CC)(c1ccc(OCC(O)C(C)(C)C)c(C)c1)c1ccc2oc(C(=O)O)c(C)c2c1 (centres unmarked) [Ex 35, 5-{1-Ethyl-1-[4-(2-hydroxy-3,3-dimethyl-butoxy)-3-methyl-phenyl]-propyl}-3-methyl-benzofuran-2-carboxylic acid]",753 nM,13,700,,EC50 (rat osteocalcin promoter; [5]): 21 nM
"CCC(CC)(c1ccc(OCC(O)C(C)(C)C)c(C)c1)c1ccc2oc(C(=O)N(C)C)c(C)c2c1 (centres unmarked) [Ex 37, 5-{1-ethyl-1-[4-(2-hydroxy-3,3-dimethyl-butoxy)-3-methyl-phenyl]-propyl}-3-methyl-benzofuran-2-carboxylic acid dimethylamide]",865 nM,,> 1000,777 nM and 133 nM,
"CCC(CC)(c1ccc(OCC(O)C(C)(C)C)c(C)c1)c1ccc2oc(C(=O)NCC(=O)O)c(C)c2c1 (centres unmarked) [Ex 39, [(5-{1-ethyl-1-[4-(2-hydroxy-3,3-dimethyl-butoxy)-3-methyl-phenyl]-propyl}-3-methyl-benzofuran-2-carbonyl)-amino]-acetic acid]",419 nM,0.4,19,138 nM,
"CCC(CC)(c1ccc(OCC(O)C(C)(C)C)c(C)c1)c1cc2cc(C(=O)O)ccc2o1 (centres unmarked) [Ex. 4, 2-{1-Ethyl-1-[4-(2-hydroxy-3,3-dimethyl-butoxy)-3-methyl-phenyl]-propyl}-benzofuran-5-carboxylic acid]",312 nM and 368 nM,,,,
"CCC(CC)(c1ccc(OCC(=O)C(C)(C)C)c(C)c1)c1cc2cc(C(=O)N(C)C)ccc2o1 [Ex. 5, 2-{1-[4-(3,3-Dimethyl-2-oxo-butoxy)-3-methyl-phenyl]-1-ethyl-propyl}-benzofuran-5-carboxylic acid dimethylamide]",1200 nM,106,,,EC50 (rat osteocalcin promoter; [5]): 79 nM
"CCC(CC)(c1ccc(OCC(O)C(C)(C)C)c(C)c1)c1cc2cc(C(=O)NCC(=O)O)ccc2o1 (centres unmarked) [Ex. 8, [(2-{1-Ethyl-1-[4-(2-hydroxy-3,3-dimethyl-butoxy)-3-methyl-phenyl]-propyl}-benzofuran-5-carbonyl)-amino]-acetic acid]",120 nM,0.6,0.3,6 nM and 2 nM,
"CCC(CC)(c1ccc(OCC(O)C(C)(C)C)c(C)c1)c1cc2cc(C(=O)Nc3nn[nH]n3)ccc2o1 (centres unmarked) [Ex. 13, 2-{1-Ethyl-1-[4-(2-hydroxy-3,3-dimethyl-butoxy)-3-methyl-phenyl]-propyl}-benzofuran-5-carboxylic acid (2H-tetrazol-5-yl)-amide]",602 nM,3,> 1000,,
